This note sets out measurements from publication PMC8501045, “Addressing MRSA infection and antibacterial resistance with peptoid polymers” (Nature Communications, 2021).

Assay [1] relates to S. aureus USA300 LAC biofilm. Description: Mouse keratitis model, MRSA biofilm on contact lens. Particulars: 1.56 mg/mL topical. Type of assay: in vivo.
Protocol: The contact lenses were cut into discs with a diameter of 3.5 mm and placed in a 96-well plate. The discs were soaked with 150 μL of MH medium overnight. Then the discs were transferred to a new 96-well plate and 150 μL of S. aureus USA300 LAC suspension (10^5 CFU/mL in MH medium) was added into corresponding wells. The plate was incubated at 37 °C with shaking at 100 rpm. After 2 h incubation, the suspension was aspirated and the lenses were washed with PBS to remove any nonadherent cells, followed by the addition of 150 μL of fresh MH medium. The plate containing the contact lenses with adhered cells was incubated at 37 °C with shaking at 100 rpm for 18 h to allow biofilm formation.
Male balb/c mice (22–24 g) were intraperitoneally injected with cyclophosphamide (150 mg/kg at 4 days and 100 mg/kg at 1 day before inducing keratitis) for immunosuppression. […] In addition, 0.5% tetracaine hydrochloride eye drops were used as topical anesthesia and then a 2 mm-diameter filter paper disc containing 2 μL of 99% 1-heptanol was placed on the center of the cornea for 15 min. […] All mice were killed and the eyeballs of each mouse were collected immediately 30 min after the last treatment, followed by the quantitative analysis of bacterial burden.
A further assay deals with S. haemolyticus 1107. Description: MIC assay, clinical isolate. Type of assay: cell-based. Conditions: Staphylococcus haemolyticus, 1107. As to the method: (§1) MRSA (S. aureus Mu50, S. aureus Newman, S. aureus USA400, S. aureus USA300 LAC, S. aureus USA300) were obtained from Shanghai Institute of Materia Medica, Chinese Academy of Sciences. All clinically isolated Gram-positive bacteria used in this study were isolated from patients with various infections, different ages and sexes in the Shanghai Ruijin Rehabilitation Hospital. All strains were cultured in Luria-Bertani (LB) medium at 37 °C before use.
(§2) Bacteria were cultured in LB medium at 37 °C for 10 h, and then the bacterial suspension was diluted in Mueller–Hinton (MH) medium to a cell density of 2 × 10^5 colony forming units (CFU)/mL as the working suspension. The poly(Naeg)20 was serially diluted by MH medium in a 96-well plate, and an equal volume of bacterial suspension was added into each well. The final concentration of the poly(Naeg)20 was ranging from 200 to 1.56 μg/mL, and the plates were incubated at 37 °C for 9 h. Wells with inoculum and no polymer were used as the positive control; wells with only MH medium were used as the blank. The optical density (OD) in each well was measured on a Molecular Devices SpectraMax M2 precision microplate reader. The percentage of bacteria growth was calculated from1 %cellgrowth=A600polymer-A600blank/A600control-A600blank×100
(§3) The test was independently repeated at least three times.

The test system of a further assay is S. haemolyticus 0202. Description: MIC assay, clinical isolate. Type of assay: cell-based. Particulars: Staphylococcus haemolyticus, 0202. As to the method:
as §1, §2, §3

For the next assay, the system named is E. faecium 1205. Description: MIC assay, clinical isolate. Particulars: Enterococcus faecium, 1205. Type of assay: cell-based. How it is done:
as §1, §2, §3

For a further assay, the system named is E. faecium 2504. Description: MIC assay, clinical isolate. Conditions: Enterococcus faecium, 2504. Type of assay: cell-based. How it is done:
as §1, §2, §3

The test system of the next assay is S. epidermidis 9397. Description: MIC assay, clinical isolate. Type of assay: cell-based. Conditions: Staphylococcus epidermidis, 9397. How it is done:
as §1, §2, §3

For the next assay, the system named is E. faecalis 2305. Description: MIC assay, clinical isolate. Type of assay: cell-based. Particulars: Enterococcus faecalis, 2305. As to the method:
as §1, §2, §3

For another assay, the system named is S. aureus 2902. Description: MIC assay, clinical isolate. Conditions: Staphylococcus aureus, 2902. Type of assay: cell-based. As to the method: as §1, §2, §3
In the next assay the test system is E. faecium 0502. Description: MIC assay, clinical isolate. Particulars: Enterococcus faecium, 0502. Type of assay: cell-based. As to the method:
as §1, §2, §3

A further assay has as its system S. agalactiae 0613. Description: MIC assay, clinical isolate. Type of assay: cell-based. Particulars: Streptococcus agalactiae, 0613. As to the method: as §1, §2, §3
A further assay deals with S. aureus 2904. Description: MIC assay, clinical isolate. Type of assay: cell-based. Particulars: Staphylococcus aureus, 2904. As to the method: as §1, §2, §3
The next assay deals with E. faecalis 0609. Description: MIC assay, clinical isolate. Type of assay: cell-based. Particulars: Enterococcus faecalis, 0609. How it is done:
as §1, §2, §3

Another assay deals with E. faecium 0609. Description: MIC assay, clinical isolate. Type of assay: cell-based. Particulars: Enterococcus faecium, 0609. As to the method: as §1, §2, §3
The test system of another assay is S. aureus 2802. Description: MIC assay, clinical isolate. Conditions: Staphylococcus aureus, 2802. Type of assay: cell-based. As to the method:
as §1, §2, §3

The next assay relates to S. haemolyticus 1303. Description: MIC assay, clinical isolate. Type of assay: cell-based. Conditions: Staphylococcus haemolyticus, 1303. As to the method:
as §1, §2, §3

In a further assay the test system is E. faecium 0610. Description: MIC assay, clinical isolate. Type of assay: cell-based. Conditions: Enterococcus faecium, 0610. As to the method: as §1, §2, §3
The test system of the next assay is S. aureus 2202. Description: MIC assay, clinical isolate. Type of assay: cell-based. Conditions: Staphylococcus aureus, 2202. How it is done: as §1, §2, §3
In a further assay the test system is S. epidermidis 0501. Description: MIC assay, clinical isolate. Type of assay: cell-based. Conditions: Staphylococcus epidermidis, 0501. How it is done:
as §1, §2, §3

Values after ≈ are worked out from the molar mass of the structure shown. Where only a bound is given, the exact number is not on record here.

With `CN[C@H](CC(C)C)C(=O)N[C@H]1C(=O)N[C@@H](CC(N)=O)C(=O)N[C@H]2C(=O)N[C@H]3C(=O)N[C@H](C(=O)N[C@H](C(=O)O)c4cc(O)cc(O)c4-c4cc3ccc4O)[C@H](O)c3ccc(c(Cl)c3)Oc3cc2cc(c3O[C@@H]2O[C@H](CO)[C@@H](O)[C@H](O)[C@H]2O[C@H]2C[C@](C)(N)[C@H](O)[C@H](C)O2)Oc2ccc(cc2Cl)[C@H]1O` [Vancomycin], in [1], the “reduction of the bacterial load of each eye of the mouse” value was “ineffective”. The MIC was 0.78 µg/mL (≈ 0.538 µM) against S. haemolyticus 1107; 1.56 µg/mL (≈ 1.08 µM) against S. haemolyticus 0202; 0.39 µg/mL (≈ 0.269 µM) against E. faecium 1205; 0.78 µg/mL (≈ 0.538 µM) in the assay with E. faecium 2504; 0.78 µg/mL (≈ 0.538 µM) against S. epidermidis 9397; 0.78 µg/mL (≈ 0.538 µM) in the assay on E. faecalis 2305. The MIC against S. aureus 2902 is 0.39 µg/mL (≈ 0.269 µM); with E. faecium 0502 it was > 200 µg/mL; in the assay with S. agalactiae 0613 it was 0.78 µg/mL (≈ 0.538 µM); in the assay with S. aureus 2904 it was 0.39 µg/mL (≈ 0.269 µM); in the assay with E. faecalis 0609, 0.39 µg/mL (≈ 0.269 µM); against E. faecium 0609, 50 µg/mL (≈ 34.5 µM). Moreover, the MIC against S. aureus 2802 worked out at 0.39 µg/mL (≈ 0.269 µM); in the assay on S. haemolyticus 1303, 0.78 µg/mL (≈ 0.538 µM); against E. faecium 0610, 0.78 µg/mL (≈ 0.538 µM); against S. aureus 2202, 0.78 µg/mL (≈ 0.538 µM); with S. epidermidis 0501, 0.78 µg/mL (≈ 0.538 µM).
